Assay results taken from patent US8334272B2, “Methods for nucleic acid transfer into cells” (Northwestern University, priority 2007, dated 2012).
Entries after “also recorded” stand apart in the source; their conditions may differ.

Key:
[1] = system: A549 cells; test: Luciferase expression after electroporation of pCMV-Lux-DTS plasmid (transfection efficiency); assay type: cell-based, human; settings: for luciferase expression versus DMSO (vehicle) treated or wild type cells: A549, 3 hours after electroporation, 1 μM TSA, 3 mM 17b, 1 mM 17-AAG, 10 nM okadaic acid; for exogenous gene expression (luciferase) versus vehicle control: A549, 24 hours after electroporation and 25 hours after drug treatment; for exogenous gene expression as measured by luciferase expression over appropriate control (FIG. 4): A549 cell cultures
Procedure: Human adenocarcinoma A549 cells (ATCC, #CCL-185, Rockville, Md.) were grown in DMEM supplemented with 10% fetal bovine serum (FBS). A stable line of A549 cells expressing firefly luciferase was constructed by transfection of cells with plasmid pGL4.14[luc2/Hygro] (Promega, Madison, Wis.) and selection with hygromycin. Colonies were pooled and passaged under selection. HIF-1 and HIF-2 knockdowns were created in A549 cells using retroviral methods with the PT67 packaging cell line (Clontech, Mountain View, Calif.). PT67 cells were transfected with 10 to 15 μg of specific shRNA-expressing or empty plasmids using lipofectin (Invitrogen, Carlsbad, Calif.) according to the manufacturer's protocol. Virus-containing medium was supplemented with 8 μg/ml of polybrene (Sigma, St. Louis, Mo.) for infection. Stable HDAC6 knockdown or stable HDAC6 overexpressing A549 cells were a generous gift from T. P. Yao (Duke University). For electroporations, cells were grown to confluency in […] dishes, and rinsed twice in serum- and antibiotic-free media. Five micrograms of plasmids in 500 µl of serum and antibiotic-free DMEM were added to each well and one […] square wave electric pulse was applied using a PetriPulser electrode (BTX, San Diego, Calif.). […] Drugs were used at the following final concentrations: 1 μM TSA, 1 mM Sodium Butyrate, […], 3 mM 17B, 1 mM 17-AAG, and 10 nM Okadaic Acid. […] All luciferase measurements were normalized to total cell protein and reported as fold-increases in expression over DMSO (vehicle-treated). All experiments were performed in triplicate wells and the experiments were repeated at least three times. For statistical analyses, student's t-tests were used. Cells grown on etched coverslips were microinjected as previously described. At least 100 cells were injected for each condition and experiments were repeated three times.
Plasmid pCMV-lux-DTS expresses luciferase from the CMV immediate early promoter and contains the SV40 DNA nuclear targeting sequence downstream of the reporter gene. All plasmids were purified from E. coli using Qiagen Gigaprep kits as described by the manufacturer (Qiagen, Chatsworth, Calif.). Plasmid pDD306, expressing GFP from the CMV promoter and which contains the GeneGrip1 PNA binding site (Gene Therapy Systems, San Diego, Calif.) was labeled with Cy3-labeled PNA as described. Briefly, plasmids were labeled with Cy3-PNA in the manufacturer's labeling buffer at 37° C. for 2 hours followed by isopropanol precipitation to remove unbound Cy3-PNA. Plasmid labeling was verified by agarose gel electrophoresis and fluorescent detection in the absence of ethidium bromide.

[2] = system: acetylated tubulin; test: Total and acetylated tubulin by immunofluorescence and Western blot; assay type: cell-based, human; parameters: level of microtubules (polymerized tubulin) / acetylated microtubules after treatment: dose or concentration left out as unconfirmed; settings: for microtubule (tubulin) acetylation: cell cultures, immunofluorescence, versus treatment controls
Procedure: Prior to collection, samples were washed once in PBS (37° C.), and stabilized in two 15 minute washes in microtubule stabilization buffer (0.1M PIPES, pH 6.75, 1 mM EGTA, 1 mM MgSO4, 2 M glycerol, protease inhibitors). Cells were then lysed in microtubule lysis buffer (25 mM Tris-HCl, pH 7.4, 0.4 M NaCl and 0.5% SDS). All extracted samples were mixed with SDS-PAGE sample buffer (112.5 mM Tris-HCl, pH 6.8, 10%-mercaptoethanol, 3.6% SDS, 1.8% glycerol, 0.001% bromophenol blue) such that equal amounts of total protein were loaded for each fraction. The samples were boiled for 3 min and separated by 12% SDS-PAGE gels according to the methods previously described by Lugtenberg. Proteins were transferred to nitrocellulose and probed using anti-acetylated (1:1000, Sigma) or anti-tubulin (1:1000, Sigma) in PBS with 5% fat-free powdered milk. Blots were developed with a chemiluminescence detection kit, and autoradiograms were digitized before densitometry using ImageJ (NIH, Bethesda, Md.). All samples were run in duplicate and were from at least three independent experiments. After all treatment regimes, cells were washed with PBS followed by a 10 minute incubation in fixation/permeabilization buffer (60 mM PIPES, 25 mM HEPES, 10 mM EGTA, 3 mM MgCl2, 0.2% Triton X-100, and 3.7% paraformaldehyde). Cells were then washed in PBS and blocked for 1 hour in PBS containing 1 mg/ml BSA. After blocking, the cells were incubated for 1 hour with the appropriate primary antibody in PBS with 0.1 mg/ml BSA, washed in PBS, and reacted for 30 minutes with Alexa 488 or 555 conjugated secondary antibody (1:200, Molecular Probes, Eugene, Oreg.) in PBS with 0.1% BSA. Following a second set of washes in PBS, the silastic membranes were excised from the culture plates, placed face up on a microscope slide, and covered with a coverslip. All images were acquired in OpenLab (Improvision, Lexington, Mass.) with a Hamamatsu Orca II-ER camera attached to Leica DRMX-2 upright fluorescent microscope using a 100× oil-immersion objective.

[3] = system: cytoplasmic HDACs (HDAC6); settings: A549 cytoplasmic extracts
Procedure: HDAC6 Activity measurements. Cytoplasmic lysates were prepared as previously described to separate HDAC6 from nuclear HDAC activity (36). Cells were then probed for HDAC activity using a fluorescent HDAC activity kit (BioMol International LP, Plymouth Meeting, Pa.). At various times during the development of the assay, the reagents were quenched, allowing for a determination of the relative activity of the cytoplasmic HDACs.

[4] = target: T1, HDAC6 (Homo sapiens, UniProt Q9UBN7); settings: sodium butyrate 1 mM, Trichostatin A 1 μM where stated; cited from earlier work
T1 sequence (Q9UBN7 1-1215): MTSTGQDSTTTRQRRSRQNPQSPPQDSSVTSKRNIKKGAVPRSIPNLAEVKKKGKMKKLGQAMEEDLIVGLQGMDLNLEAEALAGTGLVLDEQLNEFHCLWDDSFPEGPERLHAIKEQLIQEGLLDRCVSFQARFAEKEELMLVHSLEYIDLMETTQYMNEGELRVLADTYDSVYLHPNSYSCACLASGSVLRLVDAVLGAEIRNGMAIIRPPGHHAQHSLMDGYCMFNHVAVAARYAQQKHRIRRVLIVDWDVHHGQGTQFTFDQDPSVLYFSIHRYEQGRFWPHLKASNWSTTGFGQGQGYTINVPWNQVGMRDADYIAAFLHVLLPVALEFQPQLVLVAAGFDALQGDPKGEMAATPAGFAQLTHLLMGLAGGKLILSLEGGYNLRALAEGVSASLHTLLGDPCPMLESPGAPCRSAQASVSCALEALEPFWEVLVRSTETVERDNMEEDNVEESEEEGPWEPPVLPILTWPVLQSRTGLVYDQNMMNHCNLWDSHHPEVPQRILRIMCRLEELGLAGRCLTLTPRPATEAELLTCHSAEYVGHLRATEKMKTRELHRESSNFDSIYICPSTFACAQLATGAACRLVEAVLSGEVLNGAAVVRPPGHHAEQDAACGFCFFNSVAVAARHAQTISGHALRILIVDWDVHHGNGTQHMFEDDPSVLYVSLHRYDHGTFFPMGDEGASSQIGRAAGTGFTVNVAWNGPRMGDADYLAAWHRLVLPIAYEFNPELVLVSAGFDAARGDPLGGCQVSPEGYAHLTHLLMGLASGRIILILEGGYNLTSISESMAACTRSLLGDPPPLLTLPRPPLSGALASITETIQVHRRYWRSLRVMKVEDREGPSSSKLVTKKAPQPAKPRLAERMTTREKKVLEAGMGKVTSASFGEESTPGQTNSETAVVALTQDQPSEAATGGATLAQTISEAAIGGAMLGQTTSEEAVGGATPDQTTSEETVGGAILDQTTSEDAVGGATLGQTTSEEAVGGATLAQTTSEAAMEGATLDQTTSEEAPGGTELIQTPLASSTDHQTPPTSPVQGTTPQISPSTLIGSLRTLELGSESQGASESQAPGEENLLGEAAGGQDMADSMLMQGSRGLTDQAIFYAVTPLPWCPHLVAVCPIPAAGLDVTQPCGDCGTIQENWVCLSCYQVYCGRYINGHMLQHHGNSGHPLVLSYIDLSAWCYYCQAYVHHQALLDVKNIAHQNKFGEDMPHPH

## C=CCNC1=C2C[C@@H](C)C[C@H](OC)[C@H](O)[C@@H](C)/C=C(\C)[C@H](OC(N)=O)[C@@H](OC)/C=C\C=C(/C)C(=O)NC(=CC1=O)C2=O [17-AAG]
[1]
  luciferase expression versus DMSO (vehicle) treated or wild type cells: no increase in expression; also recorded: dampened

## CC(/C=C/C(=O)NO)=C\[C@@H](C)C(=O)c1ccc(N(C)C)cc1 [TSA, trichostatin A]
[2]
  microtubule (tubulin) acetylation: significant microtubule acetylation
[2]; listed as trichostatin A
  microtubule (tubulin) acetylation: increased
[3]
  cytoplasmic HDAC activity in the assay: quenched
[1]
  luciferase expression versus DMSO (vehicle) treated or wild type cells: slight but significant increase
  exogenous gene expression (luciferase) versus vehicle control: significant increases
  exogenous gene expression as measured by luciferase expression over appropriate control (FIG. 4): increased
[1]; A549, 24 hours after electroporation, 25 hours after drug
  higher increase in expression than sodium butyrate: ~10 fold

## O=C(CCCCCCC(=O)Nc1ccc([C@H]2O[C@@H](CSc3nc(-c4ccccc4)c(-c4ccccc4)o3)C[C@@H](c3ccc(CO)cc3)O2)cc1)NO [Tubacin, tubacin]
[1]
  exogenous gene expression as measured by luciferase expression over appropriate control (FIG. 4): increased
[1]; listed as tubacin
  exogenous gene expression as measured by luciferase expression over appropriate control (FIG. 4): greatly increased

## COC(=O)Nc1nc2ccc(C(=O)c3cccs3)cc2[nH]1 [nocodazole]
[2]; A549, Nocodazole, 3 hours
  acetylated microtubules after treatment: still remained
  level of microtubules (polymerized tubulin): greatly diminished

## C=C1[C@@H](O)[C@@H]2O[C@]3(CC[C@H](/C=C/[C@@H](C)[C@@H]4CC(C)=C[C@@]5(O[C@H](C[C@@](C)(O)C(=O)O)CC[C@H]5O)O4)O3)CC[C@H]2O[C@@H]1[C@@H](O)C[C@H](C)[C@H]1O[C@@]2(CCCCO2)CC[C@H]1C [okadiac acid, Okadaic Acid]
[1]
  luciferase expression versus DMSO (vehicle) treated or wild type cells: did not result the increase in expression

## CCCC(=O)[O-].[Na+] [sodium butyrate]
[2]
  microtubule (tubulin) acetylation: not and not observed
[4]
  HDAC inhibition selectivity: does not inhibit HDAC6; also recorded: inhibits all HDACs except for HDAC6
[1]
  exogenous gene expression (luciferase) versus vehicle control: significant increases
